# Reference: patent US5707966A, “Antithrombotic agents” (Eli Lilly and Company, priority 1995, dated 1998)
# Structures can show the parent of a compound that is named as a salt. Where two headings read alike, the source gives them in different places.
# Legend:
# Assay type in all cases: biochemical
# Human plasma [1] = experiment: Human plasma anticoagulation, prothrombin time (PT); conditions: concentration required to double the PT, linear extrapolation
# Experimental: (§1) Dog plasma and rat plasma is obtained from conscious mixed-breed hounds (either sex, Hazelton-LRE, Kalamazoo, Mich., U.S.A.) or from anesthetized male Sprague-Dawley rats (Harlan Sprague-Dawley, Inc., Indianapolis, Ind., U.S.A.) by venipuncture into 3.8 percent citrate. Fibrinogen is prepared from in-date ACD human blood as the fraction I-2 according to previous procedures and specifications. […] Human fibrinogen is also purchased as 98 percent pure/plasmin free from American Diagnostica, Greenwich, Conn. Coagulation reagents ACTIN, Thromboplastin, and Human plasma are from Baxter Healthcare Corp., Dade Division, Miami, Fla. Bovine thrombin from Parke-Davis ([…], Mich.) is used for coagulation assays in plasma.
# (§2) Coagulation assay procedures are as previously described. […] A CoAScreener coagulation instrument (American LABor, Inc.) is used for all coagulation assay measurements. The prothrombin time (PT) is measured by adding 0.05 mL saline and 0.05 mL Thromboplastin-C reagent to 0.05 mL test plasma. The activated partial thromboplastin time (APTT) is measured by incubation of 0.05 mL test plasma with 0.05 mL Actin reagent for 120 seconds followed by 0.05 mL CaCl2 (0.02M). The thrombin time (TT) is measured by adding 0.05 mL saline and 0.05 mL thrombin (10 NIH units/mL) to 0.05 mL test plasma. The compounds of Formula I are added to human or animal plasma over a wide range of concentrations to determine prolongation effects on the APTT, PT, and TT assays. Linear extrapolations are performed to estimate the concentrations required to double the clotting time for each assay.
# Human Thrombin = Human Thrombin (Homo sapiens, UniProt P00734); experiment: Inhibition of amidase activity of thrombin (Kass)
# Human plasma [2] = experiment: Human plasma anticoagulation, activated partial thromboplastin time (APTT); conditions: concentration required to double the APTT, linear extrapolation
# Experimental: as §1, §2
# Human plasma [3] = experiment: Human plasma anticoagulation, thrombin time (TT); conditions: concentration required to double the thrombin time, linear extrapolation
# Experimental: as §1, §2
# Bovine trypsin = molecular target: T1, Bovine trypsin (Bos taurus, UniProt P00760); experiment: Kass with trypsin, chromogenic substrate; conditions: substrate N-Benzoyl-Phe-Val-Arg-p-nitroanilide
# T1 construct: Bovine trypsin is purchased; purchased Worthington Biochemicals, Freehold, N.J
# T1 sequence (P00760 24-246): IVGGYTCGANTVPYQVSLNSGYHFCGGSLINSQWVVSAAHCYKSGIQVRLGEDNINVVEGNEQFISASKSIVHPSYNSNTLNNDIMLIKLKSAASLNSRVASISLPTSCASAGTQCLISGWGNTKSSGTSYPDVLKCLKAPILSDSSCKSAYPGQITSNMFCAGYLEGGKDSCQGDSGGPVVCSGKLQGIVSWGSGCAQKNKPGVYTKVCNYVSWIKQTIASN
# Experimental: By substantially following the procedures described above for human thrombin, and using other human blood coagulation system serine proteases and proteases of the fibrinolytic system with the appropriate chromogenic substrates, identified below, selectivity of the compounds of the present invention with respect to the coagulation factor serine proteases and with respect to the fibrinolytic system serine proteases are evaluated as well as their substantial lack of interference with serine proteases of the fibrinolytic system. Thrombin inhibitors preferably should spare fibrinolysis induced by urokinase, tissue plasminogen activator (t-PA) and streptokinase. This would be important to the therapeutic use of such agents as an adjunct to streptokinase, t-PA or urokinase thrombolytic therapy and to the use of such agents as an endogenous fibrinolysis-sparing (with respect to t-PA and urokinase) antithrombotic agent. In addition to the lack of interference with the amidase activity of the fibrinolytic proteases, such fibrinolytic system sparing can be studied by the use of human plasma clots and their lysis by the respective fibrinolytic plasminogen activators.
# Human factors X, Xa, IXa, XIa, and XIIa are purchased from Enzyme Research Laboratories, South Bend, Ind.; human urokinase from Leo Pharmaceuticals, Denmark; and recombinant activated Protein C (aPC) is prepared at Eli Lilly and Co. substantially according to U.S. Patent No. 4,981,952. Chromogenic substrates: N-Benzoyl-Ile-Glu-Gly-Arg-p-nitroanilide (for factor Xa); N-Cbz-D-Arg-Gly-Arg-p-nitroanilide (for factor IXa assay as the factor Xa substrate); Pyroglutamyl-Pro-Arg-p-nitroanilide (for Factor XIa and for aPC); H-D-Pro-Phe-Arg-p-nitroanilide (for factor XIIa); and Pyroglutamyl-Gly-Arg-p-nitroanilide (for urokinase); are purchased from KabiVitrum, Stockholm, Sweden, or from Midwest Biotech, Fishers, Ind. Bovine trypsin is purchased from Worthington Biochemicals, Freehold, N.J., and human plasma kallikrein from Kabi Vitrum, Stockholm, Sweden. Chromogenic substrate H-D-Pro-Phe-Arg-p-nitroanilide for plasma kallikrein is purchased from Kabi Vitrum, Stockholm, Sweden. N-Benzoyl-Phe-Val-Arg-p-nitroanilide, the substrate for human thrombin and for trypsin, is synthesized according to procedures described above for the compounds of the present invention, using known methods of peptide coupling from commercially available reactants or purchased from Midwest Biotech, Fishers, Ind.
# [4] = mean over a range of concentrations, […]
SMILES,Human Plasma Anticoagulation 2× Clotting time PT (Human plasma [1]),Kass Human Thrombin (Human Thrombin; [4]),Human Plasma Anticoagulation 2× Clotting time APTT (Human plasma [2]),Human Plasma Anticoagulation 2× Clotting time TT (Human plasma [3]) [ng/mL],Kass Trypsin (Bovine trypsin),Kass Human Thrombin (Human Thrombin)
"Nc1ccc(CNC(=O)[C@@H]2CCCN2C(=O)[C@@H](CC2CCCCC2)NCC(=O)O)cn1 [Example 74, HO2 CCH2 -D-Cha-Pro-5-NHCH2 -2-aminopyridine.HCl]",350 ng/mL,29 × 10^6 (L/mole),420 ng/mL,20,,
"N=C(N)c1ccc(CNC(=O)[C@@H]2CCCN2C(=O)[C@@H](CC2CCCCC2)NCCCC(=O)O)cc1 [Example 85, HOOCCH2 CH2 CH2 -D-Cha-pro-p-NHCH2 C6 H4 C(NH)NH2.HCl]",197 ng/mL,265 × 10^6 (L/mole),100 ng/mL,4.9,30.8 × 10^6 (L/mole),
"CCS(=O)(=O)N[C@H](CC1CCCCC1)C(=O)N1CCC[C@H]1C(=O)NCc1ccnc(N)c1 [Example 83, EtSO2 -D-Cha-Pro-4-NHCH2 -2-aminopyridine.HCl]","1,300 ng/mL",2.4 × 10^6 (L/mole),"1,000 ng/mL",91,0.03 × 10^6 (L/mole),
"CCS(=O)(=O)N[C@H](CC1CCCCC1)C(=O)N1CCC[C@H]1C(=O)NCc1ccc(N)cc1F [Example 82, EtSO2 -D-Cha-Pro-4-NHCH2 -3-F-C6 H3 NH2.HCl]","3,000 ng/mL",5.0 × 10^6 (L/mole),"3,800 ng/mL",130,,
"Nc1ccc(CCNC(=O)[C@@H]2CCCN2C(=O)[C@@H](CC2CCCCC2)NCC(=O)O)cc1 [Example 63, HO2 CCH2 -D-Cha-Pro-4-NHCH2 CH2 C6 H4 NH2.HCl]",,0.31 × 10^6 (L/mole),,680,,
"Nc1cc(CNC(=O)[C@@H]2CCCN2C(=O)[C@@H](CC2CCCCC2)NCC(=O)O)ccn1 [Example 73, HO2 CCH2 -D-Cha-Pro-4-NHCH2 -2-aminopyridine.HCl]",330 ng/mL,28 × 10^6 (L/mole),340 ng/mL,21,,
"Nc1ccc(CNC(=O)[C@@H]2CCCN2C(=O)[C@@H](CC2CCCCC2)NCC(=O)O)cc1F [Example 77, HO2 CCH2 -D-Cha-Pro-4-NHCH2 -2-F-aniline.HCl]",890 ng/mL,,"1,600 ng/mL",53,,11
"Nc1cc(CCNC(=O)[C@@H]2CCCN2C(=O)[C@@H](CC2CCCCC2)NCC(=O)O)ccn1 [Example 76, HO2 CCH2 -D-Cha-Pro-4-NHCH2 CH2 -2-aminopyridine.HCl]",560 ng/mL,12 × 10^6 (L/mole),490 ng/mL,29,0.36 × 10^6 (L/mole),
"CCS(=O)(=O)N[C@H](CC1CCCCC1)C(=O)N1CCC[C@H]1C(=O)NCc1ccc(C(=N)N)cc1.Cl [Example 80, EtSO2 -D-Cha-Pro-4-NHCH2 C6 H4 C(NH)NH2.HCl]",130 ng/mL,"1,700 × 10^6 (L/mole)",40 ng/mL,4,90 × 10^6 (L/mole),
"N=C(N)c1ccc(CNC(=O)[C@@H]2CCCN2C(=O)[C@@H](CC2CCCCC2)NCC(=O)O)nn1 [Example 69, HO2 CCH2 -D-Cha-Pro-3-NHCH2 -6-amidinopyridazine.HCl]",220 ng/mL,340 × 10^6 (L/mole),110 ng/mL,5,3.7 × 10^6 (L/mole),
"N=C(N)N1CC=C(CNC(=O)[C@@H]2CCCN2C(=O)[C@@H](CC2CCCCC2)NCC(=O)O)CC1 [Example 70, HO2 CCH2 -D-Cha-Pro-4-NHCH2 -1-amidino-3,4-dehydro-piperidine.HCl]",180 ng/mL,430 × 10^6 (L/mole),160 ng/mL,2,9.8 × 10^6 (L/mole),
"N=C(N)C1=CNC(CNC(=O)[C@@H]2CCCN2C(=O)[C@@H](CC2CCCCC2)NCC(=O)O)CC1 (stereo partly drawn) [Example 68, HO2 CCH2 -D-Cha-Pro-2-NHCH2 -5-amidino-5,6-dehydro-piperidine.HCl]",190 ng/mL,600 × 10^6 (L/mole),49 ng/mL,4,,
"N=C(N)C1CCC(CNC(=O)[C@@H]2CCCN2C(=O)[C@@H](CC2CCCCC2)NCC(=O)O)NC1 (stereo partly drawn) [Example 67, HO2 CCH2 -D-Cha-pro-2-NHCH2-5-amidinopiperidine.HCl]","1,300 ng/mL",,"1,800 ng/mL",34,,11
"Nc1ccc(CNC(=O)[C@@H]2CCCN2C(=O)[C@@H](CC2CCCCC2)NCC(=O)O)cc1 [Example 62, HO2 CCH2 -D-Cha-Pro-4-NHCH2 C6 H4 NH2.HCl]",,7.6 × 10^6 (L/mole),,54,,
"Nc1ccc(CCNC(=O)[C@@H]2CCCN2C(=O)[C@@H](CC2CCCCC2)NCC(=O)O)cn1 [Example 75, HO2 CCH2 -D-Cha-Pro-5-NHCH2 CH2 -2-aminopyridine.HCl]",,0.45 × 10^6 (L/mole),,,,
"Cl.N=C(N)c1cc(CNC(=O)[C@@H]2CCCN2C(=O)[C@@H](CC2CCCCC2)NCC(=O)O)cs1 [Example 65, HO2 CCH2 -D-Cha-pro-4-NHCH2-2-amidinothiophene.HCl]",,"4,500 × 10^6 (L/mole)",48 ng/mL,1,570 × 10^6 (L/mole),
